From patent US8637511B2, “Aminopyrimidines useful as kinase inhibitors” (Vertex Pharmaceuticals Incorporated, priority 2005, dated 2014) come the findings set out here.

Where two headings read alike, the source gives them in different places. Where only a bound is given, the exact number is not on record here.

The target of one experiment is T1, JAK3 (Homo sapiens, UniProt P52333).
T1 sequence (P52333 1-1124): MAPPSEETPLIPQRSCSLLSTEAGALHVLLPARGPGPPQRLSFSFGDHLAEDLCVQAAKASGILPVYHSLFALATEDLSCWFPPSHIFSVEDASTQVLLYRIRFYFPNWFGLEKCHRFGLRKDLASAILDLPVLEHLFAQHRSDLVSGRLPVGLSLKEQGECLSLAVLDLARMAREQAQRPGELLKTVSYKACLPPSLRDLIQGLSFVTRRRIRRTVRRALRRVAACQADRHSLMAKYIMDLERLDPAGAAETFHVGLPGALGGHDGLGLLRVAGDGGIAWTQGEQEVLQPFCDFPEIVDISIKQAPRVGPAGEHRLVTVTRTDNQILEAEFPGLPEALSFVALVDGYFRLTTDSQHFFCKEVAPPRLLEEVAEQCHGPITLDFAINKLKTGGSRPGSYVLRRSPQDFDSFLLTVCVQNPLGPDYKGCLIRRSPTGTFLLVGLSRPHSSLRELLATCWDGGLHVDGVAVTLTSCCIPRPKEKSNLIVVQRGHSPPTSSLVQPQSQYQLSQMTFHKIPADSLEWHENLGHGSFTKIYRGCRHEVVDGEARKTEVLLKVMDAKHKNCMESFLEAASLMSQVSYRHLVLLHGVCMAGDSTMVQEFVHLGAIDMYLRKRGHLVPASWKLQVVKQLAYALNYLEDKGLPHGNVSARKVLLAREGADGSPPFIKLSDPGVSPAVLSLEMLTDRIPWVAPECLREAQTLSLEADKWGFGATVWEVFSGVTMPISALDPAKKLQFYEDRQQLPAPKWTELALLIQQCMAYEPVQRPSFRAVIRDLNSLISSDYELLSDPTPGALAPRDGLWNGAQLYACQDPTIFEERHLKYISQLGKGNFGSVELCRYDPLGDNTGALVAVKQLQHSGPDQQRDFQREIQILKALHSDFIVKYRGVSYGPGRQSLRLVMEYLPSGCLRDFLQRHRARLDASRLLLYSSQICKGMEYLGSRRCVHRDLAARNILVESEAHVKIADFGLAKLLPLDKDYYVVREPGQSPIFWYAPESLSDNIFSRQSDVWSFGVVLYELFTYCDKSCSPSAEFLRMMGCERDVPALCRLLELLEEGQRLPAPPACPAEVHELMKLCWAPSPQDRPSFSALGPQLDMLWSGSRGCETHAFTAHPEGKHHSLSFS
Description: biochemical.

In the next experiment the test system is Colo205 cells. Description: Analysis of cell proliferation and viability. The class given is cell-based. The settings on record: Homo sapiens, COLO 205, Colo205 cells, read-out: IC50 value.
For another experiment, the target named is T2, FLT-3 (Homo sapiens, UniProt P36888).
T2 sequence (P36888 27-993): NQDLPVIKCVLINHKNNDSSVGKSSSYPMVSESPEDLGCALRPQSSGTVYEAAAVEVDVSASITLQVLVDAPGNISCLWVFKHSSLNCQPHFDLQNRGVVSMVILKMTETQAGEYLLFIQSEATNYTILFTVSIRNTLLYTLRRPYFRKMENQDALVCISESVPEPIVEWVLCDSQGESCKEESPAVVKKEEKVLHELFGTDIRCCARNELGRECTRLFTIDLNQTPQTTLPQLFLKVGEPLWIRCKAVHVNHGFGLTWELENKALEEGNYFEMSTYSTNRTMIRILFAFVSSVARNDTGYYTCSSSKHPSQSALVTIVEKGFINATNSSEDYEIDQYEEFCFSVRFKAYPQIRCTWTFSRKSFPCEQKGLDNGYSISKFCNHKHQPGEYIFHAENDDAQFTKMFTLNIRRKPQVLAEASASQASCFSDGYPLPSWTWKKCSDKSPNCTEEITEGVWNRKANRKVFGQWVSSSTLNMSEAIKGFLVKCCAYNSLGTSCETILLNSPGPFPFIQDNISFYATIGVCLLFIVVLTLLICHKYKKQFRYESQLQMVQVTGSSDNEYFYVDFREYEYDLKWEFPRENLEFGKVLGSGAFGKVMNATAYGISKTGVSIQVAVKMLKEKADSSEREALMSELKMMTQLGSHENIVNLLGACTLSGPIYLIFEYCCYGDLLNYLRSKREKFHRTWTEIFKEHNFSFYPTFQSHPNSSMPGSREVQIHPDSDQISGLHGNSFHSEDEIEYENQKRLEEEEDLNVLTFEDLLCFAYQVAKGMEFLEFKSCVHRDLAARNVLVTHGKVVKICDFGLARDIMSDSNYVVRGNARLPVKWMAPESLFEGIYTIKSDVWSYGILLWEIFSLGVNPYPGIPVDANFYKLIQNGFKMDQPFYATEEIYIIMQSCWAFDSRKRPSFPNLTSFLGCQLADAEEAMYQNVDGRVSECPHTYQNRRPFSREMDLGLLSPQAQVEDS
The experiment in a line: FLT-3 inhibition assay, radiometric filter-binding. The format is biochemical.

On to `Cc1cc(Nc2cc(N3CCC3)nc(Sc3ccc(NC(=O)c4ccccc4N(C)C)cc3)n2)[nH]n1` [Compound 124], for which the Ki – broadly, a measure of affinity in units of concentration, obtained from inhibition or displacement – fell in the range of 500 to 2000 nM on JAK3 and 150 to 1000 nM at FLT-3 (read-out: FLT-3 Ki value). For the same compound, the IC50 (usually the concentration at which inhibition is half-maximal) with Colo205 cells (incubated for 72 hours) is greater than 200 nM.
For `Cc1cc(Nc2cc(N3CCC3)nc(Sc3cccc(NC(=O)c4ccccc4Cl)c3)n2)[nH]n1` [Compound 49], the Ki on JAK3 (read-out: JAK3 Ki value) was in the range of 10 to 500 nM; at FLT-3, 150 to 1000 nM. Besides, the concentration for half-maximal inhibition (IC50) with Colo205 cells (incubated for 96 hours) is greater than 1000 nM.
In the case of `Cc1cnc(Nc2cc(N3CC(O)C3)nc(Sc3ccc(NC(=O)C4CC4)cc3)n2)s1` [Compound 3], the Ki was 10 to 500 nM at JAK3 (read-out: JAK3 Ki value) and no more than 50 nM on FLT-3. The half-inhibitory concentration (IC50) with Colo205 cells (incubated for 96 hours) is greater than 1000 nM.
Consider `Cc1cc(Nc2cc(N3CCC3)nc(Sc3ccc(NC(=O)c4ccc(CN(C)C)cc4)cc3)n2)[nH]n1` [Compound 137], for which the Ki on JAK3 (read-out: JAK3 Ki value) fell in the range of 500 to 2000 nM; on FLT-3 (read-out: FLT-3 Ki value), 50 to 150 nM. Also, in the experiment on Colo205 cells (incubated for 96 hours), the concentration for half-maximal inhibition (IC50) lay within 50 to 1000 nM.
`Cc1cnc(Nc2cc(N3CCC3)nc(Sc3ccc(NC(=O)C4CC4)cc3)n2)s1` [Compound 4]: the Ki at JAK3 was 500 to 2000 nM; on FLT-3 it was 50 to 150 nM. Besides, in the experiment on Colo205 cells (incubated for 96 hours), the IC50 was in the range of 50 to 1000 nM.
In the case of `Cc1cc(Nc2cc(N3CCC3)nc(Sc3ccc(NC(=O)C4CCCCC4)cc3)n2)n[nH]1` [Compound 30], the Ki at JAK3 was in the range of 10 to 500 nM; at FLT-3 (read-out: FLT-3 Ki value) it was 150 to 1000 nM. Also, the IC50 in the experiment with Colo205 cells (incubated for 96 hours) was 50 to 1000 nM.
As to `Cc1cc(Nc2cc(N3CC(C#N)C3)nc(Sc3ccc(NC(=O)c4ccccc4Cl)cc3)n2)n[nH]1` [Compound 16], the inhibition constant (Ki) on JAK3 is 10 to 500 nM; on FLT-3, 50 to 150 nM. In addition, the IC50 in the experiment with Colo205 cells (incubated for 72 hours) was in the range of 30 to 200 nM; in the experiment on Colo205 cells (incubated for 96 hours), 50 to 1000 nM.
Consider `Cc1cc(Nc2cc(N3CC(N4CCCC4)C3)nc(Sc3ccc4ncccc4c3)n2)n[nH]1` [Compound 159], for which the Ki is no more than 10 nM at JAK3 and no more than 50 nM on FLT-3. In addition, in the experiment on Colo205 cells (incubated for 72 hours), the IC50 is no more than 30 nM.
For `Cc1cc(Nc2cc(N3CC(O)(C4CC4)C3)nc(Sc3ccc4ccccc4c3)n2)n[nH]1` [Compound 131], the Ki on JAK3 was no more than 10 nM; at FLT-3, no more than 50 nM. For the same compound, in the experiment on Colo205 cells (incubated for 72 hours), the IC50 was greater than 200 nM.
`Cc1cc(Nc2cc(N3CCC3)nc(Sc3ccc(NC(=O)C(C)CC(F)(F)F)cc3)n2)[nH]n1` (stereo not shown) [Compound 127]: the inhibition constant (Ki) at JAK3 lay within 500 to 2000 nM; on FLT-3 (read-out: FLT-3 Ki value) it was 150 to 1000 nM. For the same compound, the IC50 in the experiment with Colo205 cells (incubated for 72 hours) is 30 to 200 nM.
Regarding `Cc1cc(Nc2cc(N3CCC3)nc(Sc3ccc(NC(=O)c4cc(C)nc(Cl)c4)cc3)n2)[nH]n1` [Compound 149], the Ki at JAK3 lay in the range of 10 to 500 nM; on FLT-3 (read-out: FLT-3 Ki value) it was 150 to 1000 nM. In addition, the 50% inhibitory concentration (IC50) in the experiment with Colo205 cells (incubated for 72 hours) is greater than 200 nM.
On to `CCC(=O)Nc1ccc(Sc2nc(Nc3cc(C)[nH]n3)cc(N3CC(O)C3)n2)cc1` [Compound 15], for which the results for the Ki at JAK3 and at FLT-3 were 10 to 500 nM and 50 to 150 nM, respectively. Also, the IC50 in the experiment on Colo205 cells (incubated for 96 hours) fell in the range of 50 to 1000 nM.
Regarding `Cc1cc(Nc2cc(N3CCC3)nc(Sc3ccc(C(=O)N4CCCC4)cc3)n2)n[nH]1` [Compound 22], the Ki at JAK3 fell in the range of 10 to 500 nM; on FLT-3 it was 50 to 150 nM. The IC50 with Colo205 cells (incubated for 96 hours) was greater than 1000 nM.
`Cc1cc(Nc2cc(N3CCC3)nc(Sc3ccc(NC(=O)c4ccc(F)cc4F)cc3)n2)n[nH]1` [Compound 44]: the Ki is 10 to 500 nM at JAK3 (read-out: JAK3 Ki value) and 150 to 1000 nM on FLT-3. The IC50 in the experiment on Colo205 cells (incubated for 96 hours) is 50 to 1000 nM.
`Cc1cnc(Nc2cc(N3CC(N)C3)nc(Sc3ccc(NC(=O)C4CC4)cc3)n2)s1` [Compound 2]: the Ki on JAK3 was 500 to 2000 nM; at FLT-3, no more than 50 nM. Besides, the IC50 in the experiment on Colo205 cells (incubated for 96 hours) fell in the range of 50 to 1000 nM.
`CC(=O)Nc1cccc(Sc2nc(Nc3cc(C)n[nH]3)cc(N3CC(F)(C4CC4)C3)n2)c1` [Compound 188]: the inhibition constant (Ki) lay within 10 to 500 nM at JAK3 (read-out: JAK3 Ki value) and 50 to 150 nM at FLT-3. The IC50 in the experiment with Colo205 cells (incubated for 72 hours) was greater than 200 nM.
For `Cc1cc(Nc2cc(N3CCC3)nc(Sc3ccc(NC(=O)Cc4cccc(Cl)c4)cc3)n2)[nH]n1` [Compound 58], the Ki fell in the range of 500 to 2000 nM on JAK3 (read-out: JAK3 Ki value) and 150 to 1000 nM at FLT-3 (read-out: FLT-3 Ki value). Besides, in the experiment on Colo205 cells (incubated for 96 hours), the IC50 was in the range of 50 to 1000 nM.
`CCCNC(=O)Nc1ccc(Sc2nc(Nc3cc(C)[nH]n3)cc(N3CCC3)n2)cc1` [Compound 73]: the values for the Ki on JAK3 (read-out: JAK3 Ki value) and on FLT-3 were 500 to 2000 nM and 50 to 150 nM, respectively. Also, the half-maximal inhibitory concentration (IC50) in the experiment on Colo205 cells (incubated for 96 hours) was greater than 1000 nM.
As for `Cc1cc(Nc2cc(N3CCC3)nc(Sc3ccc(C(=O)NC4CCCC4)cc3)n2)n[nH]1` [Compound 23], the Ki on JAK3 is 500 to 2000 nM; on FLT-3 (read-out: FLT-3 Ki value) it was 150 to 1000 nM. Moreover, the IC50 in the experiment on Colo205 cells (incubated for 96 hours) is greater than 1000 nM.
Consider `Cc1cc(Nc2cc(N3CC(C)C3)nc(Sc3ccc(NC(=O)c4ccccc4Cl)cc3)n2)n[nH]1` [Compound 39], for which the Ki on JAK3 (read-out: JAK3 Ki value) lay within 10 to 500 nM; on FLT-3 it was 50 to 150 nM. Also, in the experiment on Colo205 cells (incubated for 96 hours), the IC50 is 50 to 1000 nM.
